Each block holds one molecule with its values, some of them ahead of it. Active and inactive are the calls of the source.
Columns and labels:
[1] = molecular target: T1, Orexin/Hypocretin receptor type 1 (Homo sapiens, UniProt O43613); test: Homogeneous Time Resolved Fluorescence (HTRF)-based cell-based high throughput dose response assay for antagonists of the orexin 1 receptor (OX1R; HCRTR1). [Related pubchem assays (depositor defined):AID434989, AID435008, AID463079, AID485270, AID492963, AID492964, AID492965, AID493232, AID504717, AID504718]; format: functional
T1 sequence (O43613 whole entry): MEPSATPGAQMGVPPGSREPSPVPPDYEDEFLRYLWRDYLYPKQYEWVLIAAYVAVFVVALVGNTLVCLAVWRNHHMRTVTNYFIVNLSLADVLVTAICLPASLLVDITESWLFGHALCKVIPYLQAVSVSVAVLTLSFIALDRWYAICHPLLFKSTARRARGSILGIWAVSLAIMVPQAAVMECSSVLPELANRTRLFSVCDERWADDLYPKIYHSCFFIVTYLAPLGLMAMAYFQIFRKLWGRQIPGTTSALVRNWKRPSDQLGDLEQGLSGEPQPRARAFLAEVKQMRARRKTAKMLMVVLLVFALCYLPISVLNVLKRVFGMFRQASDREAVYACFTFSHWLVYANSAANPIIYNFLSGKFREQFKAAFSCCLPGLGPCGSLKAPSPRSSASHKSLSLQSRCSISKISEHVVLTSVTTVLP

[2] = molecular target: NAD-dependent protein deacylase sirtuin-5, mitochondrial (Homo sapiens, UniProt Q9NXA8); test: sirtuin-5 deacylation blockers, concentration series – biochemical, fluorescence imaging, cherry-pick, set 5, dose response (AID 720591);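 also: desuccinylation of succinyl peptide AMC substrate read as fluorescence after trypsin release; potency of inhibitors that lower fluorescence and may act on trypsin instead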
Sequence of NAD-dependent protein deacylase sirtuin-5, mitochondrial (Q9NXA8 whole entry): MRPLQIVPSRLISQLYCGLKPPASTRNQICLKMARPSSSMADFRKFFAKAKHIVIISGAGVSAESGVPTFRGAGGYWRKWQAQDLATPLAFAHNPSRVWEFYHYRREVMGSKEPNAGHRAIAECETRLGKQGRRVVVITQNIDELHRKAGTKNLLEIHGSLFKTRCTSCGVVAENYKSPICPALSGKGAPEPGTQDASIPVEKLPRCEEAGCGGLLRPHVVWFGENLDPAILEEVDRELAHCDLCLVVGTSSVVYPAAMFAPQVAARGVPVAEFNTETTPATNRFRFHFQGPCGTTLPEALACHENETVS

Orexin receptor type 2 [3] = molecular target: T2, Orexin receptor type 2 (Homo sapiens, UniProt O43614); test: Counterscreen assay for antagonists of the orexin 1 receptor (OX1R; HCRTR1): Homogeneous Time Resolved Fluorescence (HTRF)-based cell-based dose response assay for antagonists of the orexin 2 receptor (OX2R; HCRTR2), run by assay provider.; format: functional
T2 sequence (O43614 whole entry): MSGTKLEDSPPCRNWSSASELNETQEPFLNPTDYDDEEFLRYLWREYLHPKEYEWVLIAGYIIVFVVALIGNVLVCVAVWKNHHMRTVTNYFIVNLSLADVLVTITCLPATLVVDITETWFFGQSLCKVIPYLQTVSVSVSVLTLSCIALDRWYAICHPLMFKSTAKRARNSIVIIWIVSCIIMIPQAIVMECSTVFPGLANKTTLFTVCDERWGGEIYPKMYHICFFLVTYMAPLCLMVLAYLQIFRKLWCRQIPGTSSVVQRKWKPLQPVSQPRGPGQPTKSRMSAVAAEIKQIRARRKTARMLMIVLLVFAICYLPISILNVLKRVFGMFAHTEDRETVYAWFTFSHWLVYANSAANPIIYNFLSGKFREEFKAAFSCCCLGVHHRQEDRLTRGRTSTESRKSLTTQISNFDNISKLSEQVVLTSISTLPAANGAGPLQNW

[4] = fluconazole-exposed Candida albicans growth modulators – fluorescence, retest, confirmation (AID 2467); format: functional, cell-based
[5] = (§1) Counterscreen for antagonists of the orexin 1 receptor (OX1R; HCRTR1): Fluorescence-based cell-based high throughput dose response assay to identify antagonists of the parental CHO cell line. [Related pubchem assays (depositor defined):AID434989, AID435008, AID463079, AID485270, AID492963, AID492964, AID492965, AID493232, AID504699, AID504701]; format: functional
Orexin receptor type 2 [6] = molecular target: T2, Orexin receptor type 2; test: Counterscreen assay for antagonists of the orexin 1 receptor (OX1R; HCRTR1): Fluorescence-based cell-based dose response assay for antagonists of the orexin 2 receptor (OX2R; HCRTR2), run by assay provider.; format: functional
[7] = NIH-3T3 fibroblast cytotoxicity, dose response, cytotoxicity control, cell-based, fluorescence, Alamar Blue, secondary assay (AID 2327); format: functional;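 also: NIH-3T3 mouse fibroblasts cultured with fluconazole at 8 µg/mL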
CHO-K1 = test: as §1, with “Homogeneous time resolved fluorescence (HTRF)-based” for “Fluorescence-based”, “cell-based” for “cell-based high throughput”, “CHO-K1” for “CHO”; format: functional; conditions: Cricetulus griseus;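 also: potency for inhibition of ATP-stimulated IP1 production as antagonists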
[8] = molecular target: T1, Orexin/Hypocretin receptor type 1; test: Fluorescence-based cell-based high throughput dose response assay for antagonists of the orexin 1 receptor (OX1R; HCRTR1). [Related pubchem assays (depositor defined):AID434989, AID435008, AID463079, AID485270, AID492963, AID492964, AID492965, AID493232, AID504717, AID504718]; format: functional
[9] = molecular target: T3, Sentrin-specific protease 7 (Homo sapiens, UniProt Q9BQF6); test: inhibition of human SENP7 cleavage activity – biochemical, luminescence, set 2, SAR follow-up (AID 588600); format: functional
T3 sequence (Q9BQF6 whole entry): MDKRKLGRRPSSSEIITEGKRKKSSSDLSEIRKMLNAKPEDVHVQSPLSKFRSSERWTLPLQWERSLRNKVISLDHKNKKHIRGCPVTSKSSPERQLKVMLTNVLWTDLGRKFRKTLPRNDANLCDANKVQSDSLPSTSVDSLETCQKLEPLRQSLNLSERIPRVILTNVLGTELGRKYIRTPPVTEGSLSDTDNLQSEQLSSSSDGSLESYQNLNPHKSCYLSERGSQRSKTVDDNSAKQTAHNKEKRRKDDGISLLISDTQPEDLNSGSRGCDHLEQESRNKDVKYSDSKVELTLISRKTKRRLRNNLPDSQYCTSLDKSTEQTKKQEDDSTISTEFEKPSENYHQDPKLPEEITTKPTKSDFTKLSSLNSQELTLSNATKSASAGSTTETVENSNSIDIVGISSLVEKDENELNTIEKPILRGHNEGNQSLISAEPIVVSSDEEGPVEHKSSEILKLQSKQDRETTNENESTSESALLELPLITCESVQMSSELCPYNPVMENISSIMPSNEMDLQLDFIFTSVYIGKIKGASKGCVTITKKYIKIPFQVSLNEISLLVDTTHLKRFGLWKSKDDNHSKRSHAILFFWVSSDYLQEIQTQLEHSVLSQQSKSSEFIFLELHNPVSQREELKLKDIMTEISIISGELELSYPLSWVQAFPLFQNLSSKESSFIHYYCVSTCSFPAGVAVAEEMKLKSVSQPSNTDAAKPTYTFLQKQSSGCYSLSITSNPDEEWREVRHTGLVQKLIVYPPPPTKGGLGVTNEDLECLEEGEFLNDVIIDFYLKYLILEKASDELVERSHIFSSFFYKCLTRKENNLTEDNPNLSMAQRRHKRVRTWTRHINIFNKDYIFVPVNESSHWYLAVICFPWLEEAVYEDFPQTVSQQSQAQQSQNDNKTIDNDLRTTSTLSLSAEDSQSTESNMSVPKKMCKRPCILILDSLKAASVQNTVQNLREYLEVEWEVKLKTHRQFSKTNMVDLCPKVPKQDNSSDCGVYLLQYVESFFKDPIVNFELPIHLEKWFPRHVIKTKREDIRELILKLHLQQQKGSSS

Caspase-3 [10] = molecular target: T4, Caspase-3 (Homo sapiens, UniProt P42574); test: inhibition of recombinant caspase-3 activity – biochemical, luminescence, set 2, selectivity assay for SENP protease inhibitor project, SAR follow-up (AID 588599); format: functional
T4 sequence (P42574 whole entry): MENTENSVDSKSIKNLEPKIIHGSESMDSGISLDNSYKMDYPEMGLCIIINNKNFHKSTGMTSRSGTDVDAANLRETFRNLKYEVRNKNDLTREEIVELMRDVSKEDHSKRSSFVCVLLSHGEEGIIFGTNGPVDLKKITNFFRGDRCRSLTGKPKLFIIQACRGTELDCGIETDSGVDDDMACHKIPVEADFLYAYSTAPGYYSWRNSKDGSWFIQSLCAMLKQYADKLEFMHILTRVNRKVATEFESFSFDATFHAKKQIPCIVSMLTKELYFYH

[11] = molecular target: T5, Sentrin-specific protease 8 (Homo sapiens, UniProt Q96LD8); test: inhibition of sentrin protease 8 – biochemical, luminescence, set 2, SAR follow-up (AID 588601); format: functional
T5 sequence (Q96LD8 whole entry): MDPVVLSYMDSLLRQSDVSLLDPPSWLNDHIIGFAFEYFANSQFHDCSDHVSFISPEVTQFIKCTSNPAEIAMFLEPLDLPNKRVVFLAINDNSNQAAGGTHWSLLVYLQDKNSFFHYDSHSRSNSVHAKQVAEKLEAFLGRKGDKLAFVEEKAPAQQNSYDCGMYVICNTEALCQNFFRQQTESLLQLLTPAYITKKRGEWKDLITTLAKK

[12] = molecular target: T6, Sentrin-specific protease 6 (Homo sapiens, UniProt Q9GZR1); test: inhibition of human SENP6 catalytic domain – biochemical, luminescence, set 2, SAR follow-up (AID 588598); format: functional
T6 sequence (Q9GZR1 whole entry): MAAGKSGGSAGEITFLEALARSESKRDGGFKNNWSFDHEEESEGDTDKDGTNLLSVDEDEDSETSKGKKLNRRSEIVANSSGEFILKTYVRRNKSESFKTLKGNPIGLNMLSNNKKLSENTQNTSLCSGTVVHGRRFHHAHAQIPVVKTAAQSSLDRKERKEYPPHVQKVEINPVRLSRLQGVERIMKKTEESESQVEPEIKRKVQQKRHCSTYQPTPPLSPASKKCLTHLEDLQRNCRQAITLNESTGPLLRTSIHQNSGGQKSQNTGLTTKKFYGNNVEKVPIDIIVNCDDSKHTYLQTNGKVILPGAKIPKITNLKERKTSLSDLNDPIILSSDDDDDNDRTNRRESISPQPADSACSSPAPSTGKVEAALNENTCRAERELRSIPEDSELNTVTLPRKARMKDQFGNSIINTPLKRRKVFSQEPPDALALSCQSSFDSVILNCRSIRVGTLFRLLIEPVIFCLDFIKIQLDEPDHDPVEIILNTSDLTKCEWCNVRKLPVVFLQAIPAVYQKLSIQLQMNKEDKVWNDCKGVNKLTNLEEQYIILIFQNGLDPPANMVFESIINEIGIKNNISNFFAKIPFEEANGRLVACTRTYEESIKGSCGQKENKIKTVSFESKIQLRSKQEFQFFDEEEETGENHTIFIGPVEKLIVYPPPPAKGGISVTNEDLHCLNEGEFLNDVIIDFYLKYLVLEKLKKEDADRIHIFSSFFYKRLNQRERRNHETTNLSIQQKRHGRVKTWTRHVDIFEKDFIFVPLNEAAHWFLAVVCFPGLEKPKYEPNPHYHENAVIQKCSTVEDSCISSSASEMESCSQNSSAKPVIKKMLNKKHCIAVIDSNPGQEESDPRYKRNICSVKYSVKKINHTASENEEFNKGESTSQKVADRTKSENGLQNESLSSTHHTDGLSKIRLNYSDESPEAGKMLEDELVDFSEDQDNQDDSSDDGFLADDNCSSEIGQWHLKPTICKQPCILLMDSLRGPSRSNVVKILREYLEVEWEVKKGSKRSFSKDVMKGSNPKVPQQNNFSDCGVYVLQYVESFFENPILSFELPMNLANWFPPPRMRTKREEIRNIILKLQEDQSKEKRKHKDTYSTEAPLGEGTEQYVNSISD

[13] = molecular target: Protein disulfide-isomerase (Homo sapiens, UniProt P07237); test: inhibition of PDI-driven insulin aggregation – biochemical, turbidity, absorbance, cherry-picked samples, dose response (AID 602350); format: functional
Sequence of Protein disulfide-isomerase (P07237 whole entry): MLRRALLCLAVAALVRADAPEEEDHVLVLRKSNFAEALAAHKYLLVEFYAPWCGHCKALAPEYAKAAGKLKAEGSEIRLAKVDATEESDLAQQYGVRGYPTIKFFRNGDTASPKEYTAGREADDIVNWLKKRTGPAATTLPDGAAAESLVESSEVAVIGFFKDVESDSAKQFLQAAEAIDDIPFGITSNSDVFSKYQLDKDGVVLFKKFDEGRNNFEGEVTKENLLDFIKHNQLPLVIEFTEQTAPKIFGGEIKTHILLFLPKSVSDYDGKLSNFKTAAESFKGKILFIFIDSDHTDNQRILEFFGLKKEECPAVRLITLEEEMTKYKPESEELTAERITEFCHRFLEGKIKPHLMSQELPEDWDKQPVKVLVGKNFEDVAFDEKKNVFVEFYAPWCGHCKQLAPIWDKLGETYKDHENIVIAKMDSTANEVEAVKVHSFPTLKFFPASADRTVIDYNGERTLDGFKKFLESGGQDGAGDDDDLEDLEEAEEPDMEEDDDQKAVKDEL

[14] = molecular target: T5, Sentrin-specific protease 8; test: inhibition of human SENP8 cleavage activity – biochemical, luminescence, SAR follow-up (AID 504501); format: functional
[15] = molecular target: T3, Sentrin-specific protease 7; test: inhibition of human SENP7 cleavage activity – biochemical, luminescence, SAR follow-up (AID 504497); format: functional
[16] = molecular target: T6, Sentrin-specific protease 6; test: SAR Analysis of small molecule inhibitors of Sentrin-specific protease 6 (SENP6) using a Luminescent assay. [Related pubchem assays (depositor defined):AID2582, AID2599]; format: functional
Caspase-3 [17] = molecular target: T4, Caspase-3; test: SAR Analysis of small molecule inhibitors of Sentrin-specific proteases (SENPs) using a Caspase-3 Selectivity assay. [Related pubchem assays (depositor defined):AID2540, AID2599, AID434973, AID489001]; format: functional

Structure (SMILES): CCOc1ccccc1C(=O)Nc1ccc2nc3n(c(=O)c2c1)CCCCC3
IC50 [1]: 0.417 µM (active) | AC50 [2]: > 30 µM (inactive) | IC50 (Orexin receptor type 2 [3]): > 50 µM (inactive) | EC50 [4]: > 38 µM (not active) | IC50 [5]: > 49.8 µM (inactive) | IC50 (Orexin receptor type 2 [6]): > 88.8 µM (inactive) | EC50 [7]: > 160 µM (inactive) | IC50 (CHO-K1): > 66.3 µM (inactive) | IC50 [8]: 2.58 µM (active)

IC50 [9]: > 99 µM (inactive) | IC50 (Caspase-3 [10]): > 99 µM (inactive) | IC50 [12]: > 99 µM (inactive)
Structure (SMILES): O=C(COc1ccc(Cl)cc1Cl)NCC(=O)N/N=C/c1c[nH]c2ccccc12
IC50 [11]: > 99 µM (inactive)

AC50 [13]: 19.5 µM (active)
Structure (SMILES): C[C@H]1CN([C@@H](C)CO)C(=O)c2cc(NC(=O)Cc3cn(C)c4ccccc34)ccc2O[C@H]1CN(C)S(=O)(=O)c1ccc(F)cc1

IC50 [9]: > 99 µM (inactive) | IC50 (Caspase-3 [10]): > 99 µM (inactive) | IC50 [12]: > 99 µM (inactive)
Structure (SMILES): O=C(NCc1ccccc1F)C(=O)c1c[nH]c2ccccc12
IC50 [11]: > 99 µM (inactive)

IC50 [15]: > 99 µM (inactive) | IC50 [16]: > 99 µM (inactive) | IC50 (Caspase-3 [17]): > 99 µM (inactive)
Structure (SMILES): CCc1cccc2sc(NC(=O)c3cccc(F)c3)nc12
IC50 [14]: > 99 µM (inactive)

AC50 [13]: 16.7 µM (active)
Structure (SMILES): CC[C@]12c3[nH]c4cc(-c5ccco5)ccc4c3CCN1C(=O)[C@@H](CC(=O)NCCCOC)C[C@@H]2C(=O)N1CCN(C(=O)c2ccco2)CC1

Structure (SMILES): Cn1c2ccc(Cl)cc2c2nc3ccccc3nc21
IC50 [1]: 1.13 µM (active) | IC50 (Orexin receptor type 2 [3]): > 50 µM (inactive) | IC50 [5]: > 49.8 µM (inactive) | IC50 (Orexin receptor type 2 [6]): > 88.8 µM (inactive) | IC50 (CHO-K1): > 66.2 µM (inactive) | IC50 [8]: 4.25 µM (active)

From ChEMBL document CHEMBL1201862, “PubChem BioAssay data set” (2004)
